Tests used:
[1] = molecular target: EGFR WT (Homo sapiens, UniProt P00533); conditions: wild type EGFR and exon 20 insertion mutants, summary of Table 1
[2] = system: non-small cell lung cancer with insertion mutation in exon 20; conditions: cited from earlier work
[3] = system: stage IV lung adenocarcinoma carrying Exon 20 ins; conditions: cited from earlier work

Sequence of EGFR WT (P00533 668-1210 limits assumed): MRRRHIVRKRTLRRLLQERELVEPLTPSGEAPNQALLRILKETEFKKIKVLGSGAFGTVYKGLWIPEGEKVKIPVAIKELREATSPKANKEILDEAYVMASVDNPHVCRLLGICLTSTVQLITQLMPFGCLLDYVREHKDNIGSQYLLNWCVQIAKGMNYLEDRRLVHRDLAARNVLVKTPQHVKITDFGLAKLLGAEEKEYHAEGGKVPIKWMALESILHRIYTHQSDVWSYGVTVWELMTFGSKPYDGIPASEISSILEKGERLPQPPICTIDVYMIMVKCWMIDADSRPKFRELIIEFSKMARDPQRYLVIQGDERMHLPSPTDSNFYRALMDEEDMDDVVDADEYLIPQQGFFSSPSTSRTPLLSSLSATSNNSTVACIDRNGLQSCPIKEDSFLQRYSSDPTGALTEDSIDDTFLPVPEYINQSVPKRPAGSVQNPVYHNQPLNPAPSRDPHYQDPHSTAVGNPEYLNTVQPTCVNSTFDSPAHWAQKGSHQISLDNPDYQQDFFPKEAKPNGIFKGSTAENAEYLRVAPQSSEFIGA

CCOc1cc2ncc(C#N)c(Nc3ccc(OCc4ccccn4)c(Cl)c3)c2cc1NC(=O)/C=C/[C@H]1CCCN1C [Compound A, (E)-N-[4-[[3-chloro-4-(2-pyridylmethoxy)phenyl]amino]-3-cyano-7-ethoxy-6-quinolyl]-3-[(2R)-1-methylpyrrolidin-2-yl]prop-2-enamide]
inhibitory effect on the enzymatic activity of recombinant human wild type EGFR and the mutated type with inserted mutation in exon 20 (in words) [1]: strong inhibitory effect

CN(C)C/C=C/C(=O)Nc1cc2c(Nc3ccc(F)c(Cl)c3)ncnc2cc1O[C@H]1CCOC1 [SHR141219 (BIBW-2992)]
ORR evaluated through IRC ([2]; 23 patients with Exon 20 ins, 95% CI: 1.1%-28%): 8.7% | median PFS ([2]; patients with Exon 20 ins, 95% CI: 1.8-4.2 months): 2.7 months | median OS ([2]; patients with Exon 20 ins, 95% CI: 4.1-14.2 months): 9.2 months

C#Cc1cccc(Nc2ncnc3cc(OCCOC)c(OCCOC)cc23)c1 [erlotinib]
partial remission (PR) rate ([3]; 3 of the 11 patients with Exon 20 ins): 27% | median TTP ([3]; patients with Exon 20 ins who received erlotinib): 3 months

Source: patent US20190224189A1 (priority 2016, published 2019)
